Source: patent publication US11612652B2, “Lipids as synthetic vectors to enhance antigen processing and presentation ex-vivo in dendritic cell therapy” (PDS Biotechnology Corporation, priority 2015, dated 2023)
Entries after “also recorded” stand apart in the source; their conditions may differ.

Experiments:
BMDC / OT-1 CD8+ T cells = test: OT1 T cell proliferation (3H-thymidine uptake), cross-presentation of OVA by BMDC on MHC class I; format: cell-based, mouse; conditions: for uptake and cross-presentation of OVA by BMDC, OT1 proliferation, CPM of 3H-thymidine uptake: whole OVA and various lipid concentrations, 30 min, three day culture
Method: In the second method, T cells from a TCR transgenic mice (OT-1) were used in which all T cells are specific for an internal peptide of OVA. These T cells will only proliferate if presented with DC which have processed OVA and presented an OVA peptide on MHC class I molecules.
Thus, this represents a stringent assay for cross presentation. BMDC were incubated with different concentrations of the whole OVA protein in the presence or absence of two cationic lipids, either DOTAP or DOTMA for 1 hr at 37° C. The DC were then washed, fixed and added to the OVA peptide specific T cells. […] This response was dose dependent with respect to the OVA concentration, and was even apparent when DC were incubated with OVA at 4° C.
To examine the effect of other cationic lipids and neutral lipids on antigen uptake and cross presentation, BMDC were incubated in the presence of the whole OVA protein and various concentrations of DOTAP DOTMA, DOPC, DOEPC or DDA for 30 min at 37° C. or 4° C. DC were then washed and added to OT1 splenocytes (TCR transgenic T cells specific for the class I restricted OVA peptide […] (SEQ ID NO: 2)) in microtiter plates and cultured for three days at 37° C. […] Control cultures contained OT1 splenocytes and […] (SEQ ID NO: 2) only which bypasses the need for antigen processing.

[1] = test system: HPV16-specific CD8+ T-cells; test: IFN-gamma ELISPOT of splenocytes after vaccination with KF18 HPV peptide formulations; format: in vivo, C57 black mice; conditions: vaccinated Day 0 and Day 7, sacrificed Day 14
Method: C57 black mice were vaccinated with various formulations: […]
Group 1: KF18 HPV peptide ([…]) (SEQ ID NO: 4)
Group 2: KF18 HPV peptide+R-DOTAP liposomes
Group 3: KF18 HPV peptide+S-DOTAP liposomes
Group 4: KF18 peptide+MPL/Alum adjuvant
5 mice per group were injected with the various formulations. The mice were vaccinated on Day 0 and Day 7 and sacrificed on Day 14. The splenocytes were removed and ELISPOT studies performed. The splenocytes were stimulated with the peptide […] (RF9) (SEQ ID NO: 5), the HPV16 CD8+ T-cell epitope peptide recognized by the C57 mice. […] An additional example of this effect is observed with the cationic lipid DDA. […] However, it has been reported that in order to induce strong antigen-specific T-cell responses that DDA is used in combination with strong adjuvants (Brandt L. et al, ESAT-6 Subunit Vaccination against Mycobacterium tuberculosis, Infect Immun. 2000 February; 68(2): 791-795).

[2] = previous reported studies; cited from earlier work
[3] = test system: BMDC (CD11c positive cells); test: DQ-OVA uptake and processing by BMDC, flow cytometry; format: cell-based, mouse; conditions: for enhancement of DQ-OVA uptake and processing compared with known adjuvants (red fluorescence): one hour, 25 μM DOTAP nanoparticles, 10 μg/ml LPS or media alone
Method: In order to determine the effects of cationic lipids on antigen uptake and processing by dendritic cells ex-vivo, a fluorescent ovalbumin protein called DQ-OVA was used. DQ-OVA is non-fluorescent when intact, but emits both red and green fluorescence when the protein is degraded. BMDC were incubated at 37° C. or 4° C. for 1 hr with DQ-OVA alone, or DQ-OVA mixed with different concentrations of the cationic lipid DOTAP. The cells were then washed, fixed, and stained with fluorescent antibodies to CD11c, a marker for dendritic cells. Cells were then analyzed on an LSRII flow cytometer in both red and green fluorescent channels.
This represents the well-known mannose receptor mediated uptake of OVA by DC. […] Graphical representation of the fluorescent uptake of DQ-OVA into BMDC measured by flow cytometry.
This uptake and processing was inhibited at 4° C. confirming that active cytoskeletal rearrangements are required for this type of uptake. […] The effect of R-DOTAP was concentration dependent with 50 uM showing the greatest effect. To determine if the R-DOTAP enhancement of protein uptake is cell dependent, a mouse epithelial cell line was incubated with DQ-OVA under identical conditions as the BMDC. […] Further, they indicate that this enhancement is selective for dendritic cells and not other, non-antigen presenting cell types.
In order to determine whether lipid adjuvants could mediate the same effect as R-DOTAP, BMDC were incubated with DQ-OVA in media alone or with R-DOTAP as described for FIG. 1. In addition, BMDC were incubated under identical conditions with the potent lipid adjuvant lipopolysaccharide (LPS). Mouse bone marrow DC were incubated in the presence of fluorescent DQ-OVA for one hour at either 37° C. or 4° C./azide in the presence of 25 μM DOTAP nanoparticles, 10 μg/ml LPS or media alone, and analyzed by flow cytometry. […] Monophorphoryl lipid-A (MPL) is a lower toxicity derivative of LPS that is now an FDA approved adjuvant in several vaccines.

TC-1 tumors = test: Established TC-1 tumor model: tumor microenvironment, tumor volume, ELISPOT; format: in vivo, C57 mice
Method: C57 mice were divided into the following groups of 8 mice per group: R-DOTAP+HPV16 E7 peptide KF18 ([…]) (SEQ ID NO: 4) , GM-CSF+HPV16 E7 peptide KF18, R-DOTAP, GM-C SF, HPV16 E7 peptide KF18, untreated. 1×10^5 TC-1 tumor cells were injected into the flank of the mice on day 0. The various formulations were administered on Days 12 and 19 after tumor implantation. On day 19 4-5 mice per group were sacrificed and a number of evaluations performed to evaluate the immunology of the tumor microenvironment.
RF9 specific dextramer staining and flow cytometry were utilized to quantify the number of HPV-specific CD8+ T-cells that had infiltrated into the tumor micro-environment. The study quantified the number of CD8+ T cells specific to the mouse epitope RF9. These CD8+ T cells were measured as a percentage of all immune cells (CD45, CD3 and CD8) present in the tumor. Antigen specific T cells infiltrating into the tumor were measured using RF9 specific dextramers by flow cytometry. […] Data represents mean±SEM of 4-5 mice in each group.
On Day 19 flow cytometry was used to study the immuno-suppressive tumor microenvironment, specifically the regulatory T cell population. T regulatory cells (CD45+CD3+CD4+CD25+Foxp3+) cells infiltrated into tumors on day 14 and day 19.
Of critical importance to the clinical efficacy of any immunotherapy is the ratio of immune suppressive cells to tumor targeting CD8+ T cells within the tumor microenvironment. A lower ratio of immune suppressor cells to CD8+ T cells promotes improved prognosis for anti-tumor benefit. […] Cationic lipids appear to promote the preferential expansion of the right phenotype of effector T-cells in preference to Tregs.
The various formulations were evaluated for their impact on the established TC-1 tumors in the same study. […] Tumor volumes were measured using calipers. The naïve mice group are tumor bearing mice that remained untreated. The HPV16 E7 peptide used in the vaccine is KF18. […]
In this study, IFN-γ ELISPOT studies were also performed to quantify and understand the “quality” of tumor-specific T-cell generated. […]

[4] = test system: serum cytokines and chemokines; test: Systemic cytokines in serum after vaccination, Luminex Mouse cytokine 20-plex panel; format: in vivo, Human HLA-A2 mice
Method: This study therefore focused on an evaluation of the systemic presence of cytokines after subcutaneous administration of cationic lipid vaccines. Human HLA-A2 mice that could recognize human HPV antigens were administered high and low doses of R-DOTAP+antigen.
Group 1: • Vaccinate mice with 100 μL of a 1:1 mixture of high dose R-DOTAP (3.4 mg/mL) and sucrose solution.
Group 2: • Vaccinate with 50 μg LPS as a positive control for cytokine induction
Group 3: • Vaccinate mice with 100 μL of high dose R-DOTAP+HPV antigens (1:1 Mixture of RDOTAP 3.4 mg/mL, and HPVMix 0.14 mg/mL)
Group 4: • Vaccinate mice with 100 μL of low dose R-DOTAP+HPV antigens (1:1 Mixture of RDOTAP 0.34 mg/mL, and HPVMix 0.14 mg/mL)
After a single vaccination all mice were bled as follows:
Approximately 200 μL of blood was withdrawn from each mouse at the above specified time points.
The cytokine analysis was performed by Luminex Assay following the manufacturer's instructions.
As a positive control, the mice were also vaccinated with the well-studied toll-like-receptor (TLR) agonist lipopolysaccharide (LPS).
Study Results:Mouse serum was analyzed using a Luminex Mouse cytokine 20-plex panel (cytokines listed below). Cytokine intensity levels were quantitated by comparing to a cytokine standard run in the same plate using Luminex software. […]

CCCCCCCC/C=C\CCCCCCCC(=O)OCC(C[N+](C)(C)C)OC(=O)CCCCCCC/C=C\CCCCCCCC (stereo not drawn) [S-DOTAP, 1,2-dioleoyl-3-trimethylammonium propane]
uptake and cross-presentation of OVA by BMDC, OT1 proliferation, CPM of 3H-thymidine uptake (BMDC / OT-1 CD8+ T cells): also facilitated uptake and presentation; also recorded: identical ability to promote antigen uptake, internalization and processing, as well as maturation of dendritic cells
HPV-specific CD8+ T-cell response (ELISPOT, RF9 stimulation) [1]: did not result in an enhanced CD8+ T-cell response beyond what was seen with the peptide alone
in vivo antigen-specific immune responses [2]: neither S-DOTAP nor DDA induced effective in vivo antigen-specific immune responses

Monophorphoryl lipid-A [MPL, reference compound]
enhancement of DQ-OVA uptake and processing compared with known adjuvants (red fluorescence) [3]: showed no ability to facilitate protein uptake in BMDC; also recorded: ineffective in promoting antigen uptake compared to both R-DOTAP and S-DOTAP
HPV-specific CD8+ T-cell response (ELISPOT, RF9 stimulation) [1]: significantly lower CD8+ T-cell response compared to R-DOTAP

GQAEPDRAHYNIVTF [antigen only]
tumor volume (TC-1 tumors; Day 26, calipers): about 200 mm^3
effect on established TC-1 tumors (TC-1 tumors; formulations on Days 12 and 19, read Day 26): did not induce any tumor regression but inhibited tumor growth

CCCCCCCCCCCCCCCCCC[N+](C)(C)CCCCCCCCCCCCCCCCCC [DDA]
observation on dilution with OVA (BMDC / OT-1 CD8+ T cells): formed a precipitate when diluted with OVA
uptake and cross-presentation of OVA by BMDC, OT1 proliferation, CPM of 3H-thymidine uptake (BMDC / OT-1 CD8+ T cells): facilitated enhanced uptake and cross-presentation of OVA by BMDC; also recorded: showed strong enhancement of antigen presentation; also recorded: facilitate antigen uptake and presentation
in vivo antigen-specific immune responses [2]: neither S-DOTAP nor DDA induced effective in vivo antigen-specific immune responses

CCCCCCCC/C=C\CCCCCCCC(=O)OC[C@H](COP(=O)([O-])OCC[N+](C)(C)C)OC(=O)CCCCCCC/C=C\CCCCCCCC [DOPC, reference compound]
uptake and cross-presentation of OVA by BMDC, OT1 proliferation, CPM of 3H-thymidine uptake (BMDC / OT-1 CD8+ T cells): also facilitated uptake and presentation; also recorded: showed some enhancement

CCCCCCCC/C=C\CCCCCCCC(=O)OCC(C[N+](C)(C)C)OC(=O)CCCCCCC/C=C\CCCCCCCC (stereo not drawn) [DOTAP, 1,2-dioleoyl-3-trimethylammonium propane]
DQ-OVA uptake and processing, mean green fluorescence of CD11c positive cells ([3]; 37° C., 1 hr, versus DQ-OVA alone): enhances antigen uptake and processing by DC
cross presentation of OVA to CD8+ T cells, CPM of 3H-thymidine uptake (BMDC / OT-1 CD8+ T cells; BMDC with whole OVA, 1 hr at 37° C., washed, fixed): cross presented antigen to the CD8+ T cells much more strongly than DC incubated with OVA without cationic lipid
uptake and cross-presentation of OVA by BMDC, OT1 proliferation, CPM of 3H-thymidine uptake (BMDC / OT-1 CD8+ T cells): facilitated enhanced uptake and cross-presentation of OVA by BMDC; also recorded: showed some enhancement

lipopolysaccharide [LPS]
enhancement of DQ-OVA uptake and processing compared with known adjuvants (red fluorescence) [3]: no such enhancement was observed
time to systemic spike in cytokine levels ([4]; after vaccination): ≤ 12 h
systemic induction of cytokines and chemokines in serum ([4]; single vaccination, pre bleed, 12, 24, 48 hours): increases in the systemic levels of IL-12, IP-10, KC, MCP-1 & MIG

CCCCCCCC/C=C\CCCCCCCC(=O)OC[C@@H](COP(=O)(OCC)OCC[N+](C)(C)C)OC(=O)CCCCCCC/C=C\CCCCCCCC (stereo partly drawn) [DOEPC, 1,2-dioleoyl-sn-glycero-3-ethylphosphocholine]
uptake and cross-presentation of OVA by BMDC, OT1 proliferation, CPM of 3H-thymidine uptake (BMDC / OT-1 CD8+ T cells): facilitated enhanced uptake and cross-presentation of OVA by BMDC; also recorded: showed strong enhancement of antigen presentation
